The NIST ThermoML archive (doi:10.1021/je060271a)

Conditions: 283.15 K, Liquid, Vibrating tube method

CCCCCC(=O)OCC(COC(=O)CCCCC)(COC(=O)CCCCC)COC(=O)CCCCC [pentaerythritol tetrahexanoate]
Conditions | mass density [kg/m3]
219.9 kPa | 1004.3
220.4 kPa | 1004.3
221.1 kPa | 1004.3
221.3 kPa | 1004.1
222 kPa | 1004.2
222.5 kPa | 1004.3
223.2 kPa | 1004.1
223.5 kPa | 1004.4
224.1 kPa | 1004.3
227.9 kPa | 1004.2
228.4 kPa | 1004.2
228.8 kPa | 1004.2
229.3 kPa | 1004.3
230 kPa | 1004.2
230.8 kPa | 1004.4
231.2 kPa | 1004.2
232.1 kPa | 1004.3
232.4 kPa | 1004.2
233.4 kPa | 1004.2
233.6 kPa | 1004.3
234.8 kPa | 1004.1
236 kPa | 1004.3
237.6 kPa | 1004.4
238.1 kPa | 1004.2
238.8 kPa | 1004.2
239.2 kPa | 1004.3
239.9 kPa | 1004.3
240.7 kPa | 1004.2
241.4 kPa | 1004.3
242 kPa | 1004.4
242.8 kPa | 1004.3
243.5 kPa | 1004.3
243.9 kPa | 1004.3
244.9 kPa | 1004.3
245.6 kPa | 1004.1
246.3 kPa | 1004.3
247 kPa | 1004.3
247.7 kPa | 1004.3
248.6 kPa | 1004.3
249.6 kPa | 1004.1
249.9 kPa | 1004.2
250.5 kPa | 1004.3
251.5 kPa | 1004.3
251.9 kPa | 1004.3
252.2 kPa | 1004.3
252.7 kPa | 1004.2
253.4 kPa | 1004.3
254.6 kPa | 1004.3
255.2 kPa | 1004.3
256 kPa | 1004.3
256.9 kPa | 1004.2
257.8 kPa | 1004.4
258.6 kPa | 1004.3
259.7 kPa | 1004.3
260.5 kPa | 1004.3
261.2 kPa | 1004.3
261.9 kPa | 1004.2
262.8 kPa | 1004.2
263.5 kPa | 1004.4
264.5 kPa | 1004.2
265.2 kPa | 1004.2
266.4 kPa | 1004.3
267 kPa | 1004.3
267.8 kPa | 1004.2
269.1 kPa | 1004.3
269.8 kPa | 1004.3
270.8 kPa | 1004.3
271.7 kPa | 1004.3
272.5 kPa | 1004.3
273.4 kPa | 1004.3
274.4 kPa | 1004.2
275.3 kPa | 1004.2
276.4 kPa | 1004.3
277.6 kPa | 1004.4
278.1 kPa | 1004.2
279.1 kPa | 1004.3
280.5 kPa | 1004.2
281.2 kPa | 1004.2
282.6 kPa | 1004.3
283.7 kPa | 1004.3
284.3 kPa | 1004.2
285.7 kPa | 1004.3
286.8 kPa | 1004.3
287.6 kPa | 1004.2
288.9 kPa | 1004.2
289.6 kPa | 1004.4
290.8 kPa | 1004.3
291.8 kPa | 1004.2
292.9 kPa | 1004.3
294.1 kPa | 1004.4
295.1 kPa | 1004.3
296.5 kPa | 1004.2
297.4 kPa | 1004.2
298.6 kPa | 1004.1
299.8 kPa | 1004.2
300.9 kPa | 1004.3
301.9 kPa | 1004.3
303.3 kPa | 1004.4
304.3 kPa | 1004.4
305.5 kPa | 1004.3
306.8 kPa | 1004.2
308 kPa | 1004.4
309.4 kPa | 1004.3
310.6 kPa | 1004.3
311.5 kPa | 1004.3
313 kPa | 1004.3
314.1 kPa | 1004.2
315.6 kPa | 1004.3
317.2 kPa | 1004.3
318.8 kPa | 1004.2
320.5 kPa | 1004.3
322.2 kPa | 1004.3
324 kPa | 1004.3
325.2 kPa | 1004.3
326.4 kPa | 1004.3
328.3 kPa | 1004.2
329.5 kPa | 1004.3
331.8 kPa | 1004.2
333.3 kPa | 1004.3
335.1 kPa | 1004.4
336.8 kPa | 1004.3
338.4 kPa | 1004.3
340.1 kPa | 1004.3
341.9 kPa | 1004.3
343.1 kPa | 1004.3
344.6 kPa | 1004.3
346.7 kPa | 1004.4
348.1 kPa | 1004.4
349.2 kPa | 1004.4
350.2 kPa | 1004.3
351.1 kPa | 1004.4
352.6 kPa | 1004.4
354.7 kPa | 1004.4
355.6 kPa | 1004.3
357.2 kPa | 1004.4
358.9 kPa | 1004.3
367.6 kPa | 1004.3
369.3 kPa | 1004.4
371.3 kPa | 1004.5
373.2 kPa | 1004.2
375.4 kPa | 1004.3
377.5 kPa | 1004.3
379.4 kPa | 1004.4
381.5 kPa | 1004.4
